Source: patent US20150030540A1 (Eli Lilly and Company, priority 2008, published 2015)
Like-named read-outs stand apart in the source and are kept apart here.

Key:
[1] = Grey to white matter binding, autoradiography of AD patient brain slices; parameters: species or system human; settings: for Grey/white matter binding ratio using mild wash conditions: mild wash: 30%/40%/20% EtOH:water
Description: A study was conducted to examine the grey to white matter binding ratios for 4 different tracers: CB-001, CB-003, FDDNP and F-PiB (FIG. 7 and FIG. 8 of U.S. Ser. No. 12/372,717). […] After the human brain slices from AD patients were incubated with a given tracer for 30 min, the slices were washed with various EtOH:water solutions in an attempt to optimize the grey to white matter ratios (FIG. 9 of U.S. Ser. No. 12/372,717). The results were surprising and unexpected in view of previous work performed by other researchers. CB-001 has a slightly higher c Log P than FDDNP (3.8 vs 3.4) and would be expected to have poorer washout than FDDNP based on these values. […] More specifically, the white matter binding of FDDNP is several shades darker than CB-001's white matter binding, indicating low non-specific binding of CB-001.

amyloid binding pockets = assay: Blocking of [18F]-CB001 autoradiography staining
Aβ monomer = target: T1, Aβ monomer (Homo sapiens, UniProt P05067); settings: read-out: Binding Affinity IC50; cited from earlier work
T1 construct: Aβ monomer
T1 sequence (P05067 672-713 limits assumed): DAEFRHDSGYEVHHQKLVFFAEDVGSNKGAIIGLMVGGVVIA

[2] = microPET imaging of AD-CB-001 in rat; assay type: in vivo, Sprague-Dawley rat; settings: tail vein, 30 min dynamic microPET scan
Description: A white Sprague-Dawley rat was injected via tail vein with ˜850 uCi AD-CB-001, formulated in 10% EtOH:water. A dynamic scan was conducted for 30 min on a R4 microPET scanner. The data was reconstructed using 1 min framing.

fibrils (Aβ1-42) = fibrils (Aβ1-42) (Homo sapiens, UniProt P05067); assay: Biacore assay, Aβ42 fibrils; assay type: binding; parameters: key: A “+” sign represents a hit; ++: the increase in “+” signs relates to increasing binding affinity; +++: the increase in “+” signs relates to increasing binding affinity; A “−”sign represents no binding; settings: 10 uM
fibrils (Aβ1-42), sequence (P05067 672-713 limits assumed): as above
Description: β-Amyloid (Aβ42) Insoluble Aggregates (Fibrils). Fibrils were prepared according to methods published previously ([…] et al. 2001). Briefly, 0.5 mg of Aβ42 (Biotin-LC-Aβ42:Aβ42=1:1) was dissolved in 1 ml of PBS, pH 7.4, and mixed with a magnetic stir bar for 3 d at 37° C., resulting in a visibly cloudy solution. The fibril pellet was collected by centrifugation. The Biotin-LC-Aβ42 fibrils were immobilized onto SA chip by streptavidin-biotin capture. Screening of Amyloid Binding Compounds with Biacore (Surface Plasmon Resonance Analysis). Aβ42 oligomers/soluble polymers or fibrils were immobilized on Flow Cell 2 (Fc2) or Flow Cell 3 (Fc3) of the Sensor Chip, with Fc1 serving as the control. […] The Flow Cells were then washed with running buffer (1×PBS) for 2 minute, and regenerated with 50 mM of NaOH for 30 seconds. The real time interaction between the screening compound and the amyloid aggregates immobilized on the chip surface was recorded in the sensorgram.

[3] = target: oligomers/polymers (Aβ1-42) (Homo sapiens, UniProt P05067); assay: Biacore assay, Aβ42 oligomers/soluble polymers; assay type: binding; parameters: key: A “+” sign represents a hit; ++: the increase in “+” signs relates to increasing binding affinity; +++: the increase in “+” signs relates to increasing binding affinity; A “−”sign represents no binding; settings: 10 uM
oligomers/polymers (Aβ1-42), sequence (P05067 672-713 limits assumed): as above
Description: β-Amyloid (Aβ42) Soluble Aggregates (Oligomers/Soluble Polymers). Biotin-LC-Aβ42 was mixed with Aβ42 at a ratio of 3:2. After dissolving in 1% NH4OH and dH2O, the mixture (40 uM concentration) was incubated in 1×PBS (pH 7.4) buffer at RT for 6-hours to form oligomers/soluble polymers. The free monomer of Aβ42 in the sample was removed using a Microcon centrifugal filter tube with a 10 KDa of MW cutoff. The Biotin-LC-Aβ42 oligomers/polymers were immobilized onto SA chip by streptavidin-biotin capture. Screening of Amyloid Binding Compounds with Biacore (Surface Plasmon Resonance Analysis). Aβ42 oligomers/soluble polymers or fibrils were immobilized on Flow Cell 2 (Fc2) or Flow Cell 3 (Fc3) of the Sensor Chip, with Fc1 serving as the control. […] The Flow Cells were then washed with running buffer (1×PBS) for 2 minute, and regenerated with 50 mM of NaOH for 30 seconds. The real time interaction between the screening compound and the amyloid aggregates immobilized on the chip surface was recorded in the sensorgram.

human hepatocytes = assay: Metabolism in human hepatocytes; assay type: in vitro ADME
AchE = AchE (Homo sapiens, UniProt P22303); assay: AchE activity (IC50); assay type: biochemical
AchE, sequence (P22303 32-614): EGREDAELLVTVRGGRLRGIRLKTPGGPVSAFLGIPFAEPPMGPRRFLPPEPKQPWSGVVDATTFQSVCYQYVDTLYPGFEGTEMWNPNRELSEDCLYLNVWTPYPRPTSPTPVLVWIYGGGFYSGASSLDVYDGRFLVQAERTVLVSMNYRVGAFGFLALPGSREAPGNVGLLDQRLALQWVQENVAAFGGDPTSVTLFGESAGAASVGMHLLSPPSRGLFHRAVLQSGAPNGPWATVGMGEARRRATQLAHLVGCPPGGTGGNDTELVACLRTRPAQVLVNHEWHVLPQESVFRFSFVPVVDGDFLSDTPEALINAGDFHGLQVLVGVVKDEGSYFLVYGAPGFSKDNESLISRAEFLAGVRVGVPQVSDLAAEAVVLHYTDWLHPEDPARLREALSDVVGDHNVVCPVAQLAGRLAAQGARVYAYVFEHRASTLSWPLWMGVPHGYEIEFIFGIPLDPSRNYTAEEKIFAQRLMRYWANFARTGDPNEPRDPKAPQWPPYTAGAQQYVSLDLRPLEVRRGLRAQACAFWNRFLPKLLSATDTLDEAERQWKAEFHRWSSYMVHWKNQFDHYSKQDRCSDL

[4] = GM Intensity (comp. with W372); assay type: binding; settings: compared with W372
tau/Ab = assay: selectivity (tau/Ab); assay type: binding
Text: (§1) Furthermore, the selectivity can be evaluated in brains containing only Aβ plaques/no tau aggregates, Aβ plaques/and tau aggregates, and control brains. Unfortunately, there are no AD brains with only tau and no Aβ present. By testing radiolabeled tracers in these brain sections, one can more quantitative evaluate the relative binding strength (signal strength) and selectivity of various test compounds as they all contain the same radioactive tracer. For examples, if a test tracer binds only to tau, and not amyloid, it should show no signal in the Aβ plaques only brain sections. If a compound binds only to amyloid, it should show uptake in both types of brains. The difficulty of identifying and further quantifying selective compounds lies in the relative abundance of amyloid vs. tau, which is difficult to measure.

MAO-A = target: T2, MAO-A (Homo sapiens, UniProt P21397); assay: MAO inhibition, MAO-A; assay type: biochemical
T2 sequence (P21397 1-527): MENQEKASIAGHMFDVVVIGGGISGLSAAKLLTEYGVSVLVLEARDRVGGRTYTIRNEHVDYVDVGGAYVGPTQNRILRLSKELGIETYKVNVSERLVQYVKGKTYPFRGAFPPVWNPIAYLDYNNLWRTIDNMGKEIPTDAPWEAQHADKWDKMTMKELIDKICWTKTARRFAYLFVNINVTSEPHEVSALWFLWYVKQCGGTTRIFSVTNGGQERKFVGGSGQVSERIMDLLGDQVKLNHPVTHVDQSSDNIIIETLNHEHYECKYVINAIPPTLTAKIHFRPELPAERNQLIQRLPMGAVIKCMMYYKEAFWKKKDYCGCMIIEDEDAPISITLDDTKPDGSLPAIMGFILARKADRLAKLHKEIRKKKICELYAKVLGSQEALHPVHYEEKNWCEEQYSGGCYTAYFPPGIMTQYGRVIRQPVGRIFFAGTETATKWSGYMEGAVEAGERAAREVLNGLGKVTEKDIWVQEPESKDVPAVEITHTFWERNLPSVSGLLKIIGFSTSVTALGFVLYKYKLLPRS

[5] = background in normal brain; assay type: binding
Text: as §1

MAO-B = target: T3, MAO-B (Homo sapiens, UniProt P27338); assay: MAO inhibition, MAO-B; assay type: biochemical
T3 sequence (P27338 1-520): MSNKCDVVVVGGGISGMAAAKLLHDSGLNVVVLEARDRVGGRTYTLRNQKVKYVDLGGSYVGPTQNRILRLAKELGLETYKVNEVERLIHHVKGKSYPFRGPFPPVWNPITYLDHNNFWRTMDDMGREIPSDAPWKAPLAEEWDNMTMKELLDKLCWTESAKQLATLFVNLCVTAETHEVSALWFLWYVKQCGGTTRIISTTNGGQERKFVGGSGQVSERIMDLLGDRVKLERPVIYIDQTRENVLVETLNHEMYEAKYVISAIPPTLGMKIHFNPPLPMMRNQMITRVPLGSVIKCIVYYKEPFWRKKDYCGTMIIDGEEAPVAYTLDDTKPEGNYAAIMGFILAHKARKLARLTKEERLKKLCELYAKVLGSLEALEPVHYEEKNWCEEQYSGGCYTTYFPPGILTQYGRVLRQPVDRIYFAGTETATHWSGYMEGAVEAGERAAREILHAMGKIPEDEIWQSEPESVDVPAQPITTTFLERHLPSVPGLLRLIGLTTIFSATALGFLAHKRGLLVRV

[6] = Brain uptake in rats and mice; assay type: in vivo
[7] = Brain uptake after intravenous injection into mice; assay type: in vivo; settings: injected intravenously into mice
Text: (§2) When injected intravenously into mice, the Carbazole based compounds; in particular T807, T805 and T794 have shown excellent brain uptake. These compounds also display high binding affinity to tau fibrils. […] In neuropathological staining, compounds of the present invention stained amyloid plaques and/or tau aggregates.

tau/amyloid = assay: Tx/tau/amyloid correlation; assay type: binding
tau = target: T4, tau (Homo sapiens, UniProt P10636); assay: KD (tau) binding; settings: read-out: KD (tau)
T4 construct: Native forms of tau (various isoforms, hyperphosphorylated) and amyloid aggregates are present in brain sections and therefore preferred for compound testing
T4 sequence (P10636 623-758 limits assumed): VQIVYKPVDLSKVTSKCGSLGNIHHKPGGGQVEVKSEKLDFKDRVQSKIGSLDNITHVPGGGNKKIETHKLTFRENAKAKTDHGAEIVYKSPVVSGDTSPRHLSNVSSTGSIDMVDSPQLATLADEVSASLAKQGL
Text: as §2, §1

Aβ fibrils = target: T5, Aβ fibrils (Homo sapiens, UniProt P05067); settings: read-out: Binding Affinity Ki; cited from earlier work
T5 construct: Aβ monomer
T5 sequence (P05067 672-713 limits assumed): as the sequence (P05067 672-713 limits assumed) above

[8] = target: Amyloid (AD Patient's Brain Slice) (Homo sapiens, UniProt P05067); assay: IC50 determination with [18F]-PiB by ex vivo competition assay using autoradiography staining; assay type: binding
Amyloid (AD Patient's Brain Slice), sequence (P05067 672-711 limits assumed): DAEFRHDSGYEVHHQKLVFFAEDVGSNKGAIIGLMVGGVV
Text: Ex Vivo Competition Assay Using Amyloid (AD Patient's Brain Slice) Autoradiography Staining

CNS selectivity panel = CNS selectivity panel (hits); assay type: binding

With `FCCOCCOCCOc1ccc2c(c1)[nH]c1ccccc12` [CB-003, 2-(2-(2-(2-fluoroethoxy)ethoxy)ethoxy)-9H-carbazole] the “differentiation of healthy and AD brain” value ([1]; mild wash protocol) was “clearly differentiate between a healthy brain and an AD brain”, the “Grey/white matter binding ratio using mild wash conditions” value [1] was “Excellent” and the “grey to white matter binding ratios” value ([1]; milder washing conditions, text b481) was “excellent”.
In the case of `CC(=C(C#N)C#N)c1ccc2cc(N(C)CCF)ccc2c1` [FDDNP], the “blocking of [18F]-CB001 staining” value (amyloid binding pockets) is reported as “much less capable of blocking”.
In the case of `COc1cc(/C=C/C(=O)/C=C(O)/C=C/c2ccc(O)c(OC)c2)ccc1O` [Curcumin], the IC50 (Aβ monomer) is given as 10000 to 20000 nM.
For `O=S(=O)(O)c1cccc2cccc(Nc3ccccc3)c12` [ANS], the IC50 (Aβ monomer) is listed as greater than 100000 nM.
In the case of `FCCOc1ccc2c(c1)[nH]c1ccccc12` [CB-001, 2-(2-fluoroethoxy)-9H-carbazole], the “brain entry and washout” value [2] is reported as “entered the rat brain and quickly washed out”, the non-specific binding propensity ([1]; compared to FDDNP) is reported as “lower” and the “Grey/white matter binding ratio using harsh FDDNP wash conditions” value ([1]; harsh FDDNP wash: 70%/90%/70% EtOH:water) is reported as “Excellent”. For the same compound, the “Grey/white matter binding ratio using mild wash conditions” value [1] was “Poor” and the “grey to white matter ratio” value ([1]; original wash, text b480) was “much better”.
In the case of `CNc1ccc(-c2nc3ccc(O)cc3s2)cc1` [PiB], the “blocking of [18F]-CB001 staining” value (amyloid binding pockets) is reported as “blocks [18F]-CB001 staining with increasing concentrations”.
With Harmol the “Binding to fibrils (Aβ1-42)” value (fibrils (Aβ1-42)) was “+” and the “Binding to oligomers/polymers (Aβ1-42)” value [3] was “++”.
With `Fc1ccc(-c2ccc3c(c2)[nH]c2ccncc23)cn1` [T807, 7-(6-Fluoropyridine-3-yl)-5H-pyrido[4,3-b]indole] the “human hepatocytes (metabolic stability)” value (human hepatocytes) was “somewhat stable”, the IC50 (AchE) was 6000 nM and the “GM Intensity (comp. with W372)” value [4] was 28%. The “selectivity (tau/Ab)” value (tau/Ab) was 29x, the inhibition at 1 µM (MAO-A) was 0% and the “background (normal brain 32566) PSL/mm2” value [5] was 61 PSL/mm2. The inhibition at 1 µM (MAO-B) was 0%, the Brain uptake [6] was “yes (3 rats, 3 mice)” and the Brain uptake [7] was “excellent”. The Tx/tau/amyloid correlation (tau/amyloid) was “yes” and the Kd (tau) was 15 nM.
For `[11CH3]Nc1ccc(-c2cc3ccc(O)cc3o2)cc1`, the Ki (Aβ fibrils) is given as 2.8 nM.
Work on F-PiB yielded an IC50 ([8]; average of determinations, read-out: Average IC50) of 45 nM, an IC50 ([8]; determination 9, read-out: IC50 9) of 40 nM and an IC50 ([8]; determination 10, read-out: IC50 10) of 50 nM. The IC50 ([8]; determination 11, read-out: IC50 11) was 55 nM, the IC50 ([8]; determination 12, read-out: IC50 12) was 41 nM and the overall signal [1] was “very weak”.
For `Oc1ccc2c(c1)[nH]c1ccccc12` [2-Hydroxycarbazole], the “Binding to fibrils (Aβ1-42)” value (fibrils (Aβ1-42)) was “+” and the “Binding to oligomers/polymers (Aβ1-42)” value [3] was “+++”.
With `FCCc1ccc2c(c1)[nH]c1ccncc12` [T805, 7-(2-Fluoroethyl)-5H-pyrido[4,3-b]indole] the “AchE activity, effect at 10 uM” value (AchE; at 10 uM) was less than 50% at 10 uM, the “GM Intensity (comp. with W372)” value [4] was 8% and the “selectivity (tau/Ab)” value (tau/Ab) was 14x. For the same compound, the inhibition at 1 µM (MAO-A) was 0%, the “background (normal brain 32566) PSL/mm2” value [5] was 49 PSL/mm2 and the inhibition at 1 µM (MAO-B) was 0%. The Brain uptake [6] was “yes (2 rats, 2 mice)”, the Brain uptake [7] was “excellent” and the Kd (tau) was 32 nM.
For `Nc1c(/N=N/c2ccc(-c3ccc(/N=N/c4cc(S(=O)(=O)O)c5ccccc5c4N)cc3)cc2)cc(S(=O)(=O)O)c2ccccc12` [Congo Red], the IC50 (Aβ monomer) is given as 2000 to 10000 nM.
With `Cc1cnc2c(c1)[nH]c1cc(OCCF)ccc12` [T703, 7-(2-fluoroethoxy)-3-methyl-5H-pyrido[3,2-b]indole] the “GM Intensity (comp. with W372)” value [4] was 6%, the “selectivity (tau/Ab)” value (tau/Ab) was 16x and the inhibition at 1 µM (MAO-A) was 16%. The “background (normal brain 32566) PSL/mm2” value [5] was 15 PSL/mm2, the inhibition at 1 µM (MAO-B) was 0% and the Brain uptake [6] was “Yes”. The “CNS selectivity panel (targets named)” value (CNS selectivity panel) was “NET, σl”.
